The values below come from patent publication US11945819B1, “Dimethyl 7-bromo-1-(4-substituted benzoyl)pyrrolo[1,2-a]quinoline-2,3-dicarboxylates as anti-inflammatory agents” (KING FAISAL UNIVERSITY, priority 2023, dated 2024).

Structures are written as SMILES.

Data set [1] concerns the target bovine serum albumin (Bos taurus, UniProt P02769). In words: In vitro anti-inflammatory activity by inhibition of bovine serum albumin denaturation. It is filed as biochemical. As to conditions: for % Inhibition at 10 μg: inhibition of heat-induced albumin denaturation (60° C., 10 min), turbidity, average of triplicate; for inhibition rate: at 10 μg, bovine serum albumin denaturation method. The protocol: Accordingly, in an embodiment of the present subject matter, the dimethyl 7-bromo-1-(4- substituted benzoyl)pyrrolo[1,2-α]quinoline-2,3-dicarboxylates derivatives, or the dimethyl 7-bromo-1-(4-substituted benzoyl)pyrrolo[1,2-α]quinoline-2,3-dicarboxylates, as described herein were screened for their in vitro anti-inflammatory activity by inhibiting the bovine serum albumin denaturation method. The test compound is dissolved in a minimum amount of dimethyl sulphoxide (DMSO) and diluted with phosphate buffer. The final concentration of DMF in all solutions is less than 2.5%. Test solutions containing different concentrations of the drug is mixed with albumin solution in phosphate buffer and incubated at about 27-37° C.±10° C. for about at least 15 min. Denaturation is induced by keeping the reaction mixture at about 60° C.±10° C. in a water bath for at least about 10 min. After cooling, the turbidity is measured at about 210-660 nm (Shimadzu Spectrometer). Percentage inhibition of denaturation is calculated from a control where no drug was added. The percentage of inhibition is calculated from the following formula. The standard solution is also prepared as similar to that of the test solution. Ibuprofen can be used as a standard.
The newly synthesized compounds were screened for their in-vitro anti-inflammatory activity by inhibiting the bovine serum albumin denaturation method. The test compounds were dissolved in a minimum dimethyl sulphoxide (DMSO) and diluted with phosphate buffer (0.2M, pH 7.4). The final concentration of DMF in all solutions was less than 2.5%. Test solution (1 mL) containing different concentrations of the drug was mixed with 1 mL of 1 mm albumin solution in phosphate buffer and incubated at 27-37° C.±10° C. for 15 min. Denaturation was induced by keeping the reaction mixture at 60° C.±10° C. in a water bath for 10 min. After cooling, the turbidity was measured at 210-660 nm (Shimadzu Spectrometer). Percentage inhibition of denaturation was calculated from control where no drug was added. Each experiment was done in triplicate, and the average was taken. The percentage of inhibition is calculated from the following formula. The standard solution was also prepared as similar to that of the test solution. Ibuprofen was used as a standard.
The inhibition was calculated using the following equation: % Inhibition=100 (1−Vt/Vc) where, Vt=Drug absorbance of triplicate average Vc=Control absorbance of triplicate average

bovine serum albumin, sequence (P02769 25-607): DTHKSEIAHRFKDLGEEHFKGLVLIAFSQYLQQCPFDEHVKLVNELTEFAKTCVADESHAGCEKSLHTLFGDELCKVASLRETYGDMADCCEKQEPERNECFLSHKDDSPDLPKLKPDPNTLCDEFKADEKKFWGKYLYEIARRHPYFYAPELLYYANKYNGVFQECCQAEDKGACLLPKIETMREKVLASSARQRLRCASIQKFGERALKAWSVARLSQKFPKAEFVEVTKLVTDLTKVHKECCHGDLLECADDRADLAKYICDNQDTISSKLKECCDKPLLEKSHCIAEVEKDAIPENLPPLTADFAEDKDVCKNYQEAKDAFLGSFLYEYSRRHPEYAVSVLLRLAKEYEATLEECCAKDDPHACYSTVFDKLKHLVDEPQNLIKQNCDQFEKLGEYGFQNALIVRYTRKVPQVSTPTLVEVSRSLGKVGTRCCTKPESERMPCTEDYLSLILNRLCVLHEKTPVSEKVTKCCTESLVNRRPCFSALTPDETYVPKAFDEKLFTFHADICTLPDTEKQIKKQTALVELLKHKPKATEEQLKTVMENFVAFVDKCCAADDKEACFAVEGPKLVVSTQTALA

As for `COC(=O)c1c(C(=O)OC)c2ccc3cc(Br)ccc3n2c1C(=O)c1ccc(F)cc1` [Compound 3a, dimethyl 7-bromo-1-(4-fluorobenzoyl)pyrrolo[1,2-α]quinoline-2,3-dicarboxylate], the melting point fell in the range of 169 to 171 °C. In data set [1], the “% Inhibition at 10 μg” value was 49.75% and the inhibition rate stood at 49.75%.

In turn, `COC(=O)c1c(C(=O)OC)c2ccc3cc(Br)ccc3n2c1C(=O)c1ccc(Cl)cc1` [Compound 3b, dimethyl 7-bromo-1-(4-chlorobenzoyl)pyrrolo[1,2-α]quinoline-2,3-dicarboxylate] returned a melting point of 210 to 212 °C. In data set [1], the “% Inhibition at 10 μg” value turned out to be 42.52% and the inhibition rate amounted to 42.52%.

The compound `COC(=O)c1c(C(=O)OC)c2ccc3cc(Br)ccc3n2c1C(=O)c1ccc(Br)cc1` [Compound 3c, dimethyl 7-bromo-1-(4-bromobenzoyl)pyrrolo[1,2-α]quinoline-2,3-dicarboxylate] returned a melting point of 170 to 172 °C. In data set [1], the “% Inhibition at 10 μg” value is listed as 54.35% and the inhibition rate turned out to be 54.35%.

The term % Inhibition denotes the percentage by which the read-out fell short of the control. For orientation: melting point means the temperature of the solid-liquid transition.
